Test results reported in PubChem BioAssay (NCI).
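Compound exposure: 48 hours, 5 concentrations, 96-well plates. At the GI50, growth is halved. TGI marks complete inhibition of growth.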

Tests used:
Assay in all cases: NCI-60 cell line screen, 48 h
EKVX NSCLC = tested on: EKVX NSCLC
MALME-3M melanoma = tested on: MALME-3M melanoma
DU-145 prostate = tested on: DU-145 prostate
SK-MEL-2 melanoma = tested on: SK-MEL-2 melanoma
OVCAR-4 ovarian = tested on: OVCAR-4 ovarian
786-0 renal = tested on: 786-0 renal
OVCAR-8 ovarian = tested on: OVCAR-8 ovarian
NCI-H460 lung = tested on: NCI-H460 lung
SNB-19 CNS = tested on: SNB-19 CNS
U251 CNS = tested on: U251 CNS
SW-620 colon = tested on: SW-620 colon
SN12C renal = tested on: SN12C renal
T-47D breast = tested on: T-47D breast
HT29 colon = tested on: HT29 colon
MDA-MB-435 = tested on: MDA-MB-435
HCT-15 colon = tested on: HCT-15 colon
A498 renal = tested on: A498 renal
CAKI-1 renal = tested on: CAKI-1 renal
NCI-H23 lung = tested on: NCI-H23 lung
OVCAR-5 ovarian = tested on: OVCAR-5 ovarian
SR leukemia = tested on: SR leukemia
HCT-116 colon = tested on: HCT-116 colon
A549 NSCLC = tested on: A549 NSCLC
RXF 393 renal = tested on: RXF 393 renal
SK-MEL-28 melanoma = tested on: SK-MEL-28 melanoma
NCI-H522 lung = tested on: NCI-H522 lung
CCRF-CEM leukemia = tested on: CCRF-CEM leukemia
COLO 205 colon = tested on: COLO 205 colon
SF-268 CNS = tested on: SF-268 CNS
HL-60(TB) leukemia = tested on: HL-60(TB) leukemia
MDA-MB-231 breast = tested on: MDA-MB-231 breast
RPMI-8226 leukemia = tested on: RPMI-8226 leukemia
MCF7 breast = tested on: MCF7 breast
UACC-257 melanoma = tested on: UACC-257 melanoma
ACHN renal = tested on: ACHN renal
KM12 colon = tested on: KM12 colon
SNB-75 CNS = tested on: SNB-75 CNS
UO-31 renal = tested on: UO-31 renal
SF-539 CNS = tested on: SF-539 CNS
SK-MEL-5 melanoma = tested on: SK-MEL-5 melanoma
TK-10 renal = tested on: TK-10 renal
HOP-92 NSCLC = tested on: HOP-92 NSCLC
NCI-H226 lung = tested on: NCI-H226 lung
UACC-62 melanoma = tested on: UACC-62 melanoma
IGROV1 ovarian = tested on: IGROV1 ovarian
SF-295 CNS = tested on: SF-295 CNS
HOP-62 NSCLC = tested on: HOP-62 NSCLC
LOX IMVI melanoma = tested on: LOX IMVI melanoma
K-562 leukemia = tested on: K-562 leukemia
NCI/ADR-RES ovarian = tested on: NCI/ADR-RES ovarian
M14 melanoma = tested on: M14 melanoma
PC-3 prostate = tested on: PC-3 prostate
HCC-2998 colon = tested on: HCC-2998 colon
OVCAR-3 ovarian = tested on: OVCAR-3 ovarian
HS 578T breast = tested on: HS 578T breast
MOLT-4 leukemia = tested on: MOLT-4 leukemia
SK-OV-3 ovarian = tested on: SK-OV-3 ovarian
BT-549 breast = tested on: BT-549 breast

With `Nc1nc(-c2cccc([N+](=O)[O-])c2)c(N=Nc2ccc([N+](=O)[O-])cc2Cl)s1` the GI50 (EKVX NSCLC) was 260 nM, the TGI (EKVX NSCLC) was 4200 nM and the GI50 (MALME-3M melanoma) was 172 nM. The TGI (MALME-3M melanoma) was 739 nM, the GI50 (DU-145 prostate) was 383 nM and the TGI (DU-145 prostate) was over 49900 nM. The GI50 (SK-MEL-2 melanoma) was 86 nM, the TGI (SK-MEL-2 melanoma) was 401 nM and the GI50 (OVCAR-4 ovarian) was 274 nM. The TGI (OVCAR-4 ovarian) was over 67400 nM, the GI50 (786-0 renal) was 351 nM and the TGI (786-0 renal) was 7210 nM. The GI50 (OVCAR-8 ovarian) was 308 nM, the TGI (OVCAR-8 ovarian) was 4460 nM and the GI50 (NCI-H460 lung) was 243 nM. The TGI (NCI-H460 lung) was 1260 nM, the GI50 (SNB-19 CNS) was 311 nM and the TGI (SNB-19 CNS) was 20800 nM. The GI50 (U251 CNS) was 213 nM, the TGI (U251 CNS) was 1320 nM and the GI50 (SW-620 colon) was 325 nM. It also gave a TGI (SW-620 colon) of 5460 nM, a GI50 (SN12C renal) of 261 nM and a TGI (SN12C renal) of 4570 nM. The GI50 (T-47D breast) was 67.1 nM, the TGI (T-47D breast) was 771 nM and the GI50 (HT29 colon) was 342 nM. The TGI (HT29 colon) was 4380 nM, the GI50 (MDA-MB-435) was 291 nM and the TGI (MDA-MB-435) was 3650 nM. It also gave a GI50 (HCT-15 colon) of 193 nM, a TGI (HCT-15 colon) of 2000 nM and a GI50 (A498 renal) of 270 nM. For the same molecule, the TGI (A498 renal) was 737 nM, the GI50 (CAKI-1 renal) was 204 nM and the TGI (CAKI-1 renal) was 1700 nM. The GI50 (NCI-H23 lung) was 168 nM, the TGI (NCI-H23 lung) was 786 nM and the GI50 (OVCAR-5 ovarian) was 535 nM. The TGI (OVCAR-5 ovarian) was 36400 nM, the GI50 (SR leukemia) was 293 nM and the TGI (SR leukemia) was 2940 nM. The GI50 (HCT-116 colon) was 231 nM, the TGI (HCT-116 colon) was 1230 nM and the GI50 (A549 NSCLC) was 354 nM. It also gave a TGI (A549 NSCLC) of over 34900 nM, a GI50 (RXF 393 renal) of 251 nM and a TGI (RXF 393 renal) of 704 nM. The GI50 (SK-MEL-28 melanoma) was 336 nM, the TGI (SK-MEL-28 melanoma) was 8140 nM and the GI50 (NCI-H522 lung) was 119 nM. It also gave a TGI (NCI-H522 lung) of 2490 nM, a GI50 (CCRF-CEM leukemia) of 310 nM and a TGI (CCRF-CEM leukemia) of 9120 nM. It also gave a GI50 (COLO 205 colon) of 342 nM, a TGI (COLO 205 colon) of 1290 nM and a GI50 (SF-268 CNS) of 310 nM. The TGI (SF-268 CNS) was over 41400 nM, the GI50 (HL-60(TB) leukemia) was 254 nM and the TGI (HL-60(TB) leukemia) was 1130 nM. For the same molecule, the GI50 (MDA-MB-231 breast) was 289 nM, the TGI (MDA-MB-231 breast) was 1780 nM and the GI50 (RPMI-8226 leukemia) was 99.6 nM. For the same molecule, the GI50 (MCF7 breast) was 192 nM, the TGI (MCF7 breast) was 1360 nM and the GI50 (UACC-257 melanoma) was 133 nM. For the same molecule, the TGI (UACC-257 melanoma) was 1370 nM, the GI50 (ACHN renal) was 287 nM and the TGI (ACHN renal) was 11300 nM. For the same molecule, the GI50 (KM12 colon) was 272 nM, the TGI (KM12 colon) was 3730 nM and the GI50 (SNB-75 CNS) was 171 nM. For the same molecule, the TGI (SNB-75 CNS) was 2280 nM, the GI50 (UO-31 renal) was 236 nM and the TGI (UO-31 renal) was 1380 nM. For the same molecule, the GI50 (SF-539 CNS) was 344 nM, the TGI (SF-539 CNS) was 10400 nM and the GI50 (SK-MEL-5 melanoma) was 87.7 nM. It also gave a TGI (SK-MEL-5 melanoma) of 286 nM, a GI50 (TK-10 renal) of 573 nM and a TGI (TK-10 renal) of 8870 nM. For the same molecule, the GI50 (HOP-92 NSCLC) was 48.6 nM, the TGI (HOP-92 NSCLC) was 418 nM and the GI50 (NCI-H226 lung) was 196 nM. For the same molecule, the TGI (NCI-H226 lung) was 816 nM, the GI50 (UACC-62 melanoma) was 144 nM and the TGI (UACC-62 melanoma) was 1620 nM. The GI50 (IGROV1 ovarian) was 446 nM, the TGI (IGROV1 ovarian) was 18500 nM and the GI50 (SF-295 CNS) was 261 nM. The TGI (SF-295 CNS) was 1110 nM, the GI50 (HOP-62 NSCLC) was 312 nM and the TGI (HOP-62 NSCLC) was 1700 nM. For the same molecule, the GI50 (LOX IMVI melanoma) was 317 nM, the TGI (LOX IMVI melanoma) was 4610 nM and the GI50 (K-562 leukemia) was 151 nM. The TGI (K-562 leukemia) was 4990 nM, the GI50 (NCI/ADR-RES ovarian) was 254 nM and the TGI (NCI/ADR-RES ovarian) was 2050 nM. The GI50 (M14 melanoma) was 377 nM, the TGI (M14 melanoma) was 6750 nM and the GI50 (PC-3 prostate) was 244 nM. The TGI (PC-3 prostate) was 7390 nM, the GI50 (HCC-2998 colon) was 309 nM and the TGI (HCC-2998 colon) was 7420 nM. It also gave a GI50 (OVCAR-3 ovarian) of 245 nM, a TGI (OVCAR-3 ovarian) of 12900 nM and a GI50 (HS 578T breast) of 239 nM. For the same molecule, the TGI (HS 578T breast) was 1210 nM, the GI50 (MOLT-4 leukemia) was 266 nM and the TGI (MOLT-4 leukemia) was 2580 nM. For the same molecule, the GI50 (SK-OV-3 ovarian) was 160 nM, the TGI (SK-OV-3 ovarian) was 1000 nM and the GI50 (BT-549 breast) was 206 nM. For the same molecule, the TGI (BT-549 breast) was 842 nM.
